Measured values: patent publication US20080070938A1, “Medicinal composition for mitigating blood lipid or lowering blood homocysteine” (SANKYO COMPANY, LIMITED, priority 2002, published 2008)

Experiments:
patients = details: treated for one year; 20,705 patients; placebo control group 1.9% decrease; cited from earlier work
Male Beagle dogs [1] = test: Test Example 1: serum lipids (total cholesterol, LDL, triglyceride) after 11 days of oral dosing; type: in vivo; details: oral once daily, Pyridoxine hydrochloride 50 mg/Kg, relative value, pre-treatment average = 100, mean of 5 dogs
Procedure: Pravastatin sodium manufactured at Sankyo Co., Ltd. was used. Simvastatin and atorvastatin synthesized at Chemtech Labo., Inc. were used.
The administration period was 11 days.
Approximately 10 mL of blood was collected from the cephalic vein of each dog on -14 and -7 day (the 1st and the 2nd week prior to administration) as well as 4, 8, and 12 days after administration.
The collected blood was placed in a test tube and allowed to stand at room temperature for 30 min to 1 hour. Then the blood was centrifuged (approximately 1,600 g, for 10 min) and the resultant serum obtained was used for assays.
Total cholesterol content was assayed by enzymatic assay method, while HDL, LDL, and triglyceride were determined by homogeneous method, chemically modified method, and enzymatic techniques, respectively. Clinical Laboratory System (TBA-120FR, Toshiba Medical Systems Corporation) was used in all of these determinations.
Relative values of various levels of serum lipids in animals treated with each dose of pyridoxine hydrochloride, pravastatin sodium, simvastatin, or atorvastatin calcium alone as well as the medicinal compositions described above were calculated against each converted average value calculated from that determined 2 weeks and 1 week before the treatment into 100.

[2] = test system: patients with cardiovascular diseases; details: 6 successive weeks; patients with cardiovascular diseases (3 atorvastatin, 4 simvastatin); cited from earlier work
Male Beagle dogs [3] = test: Test Example 2: blood homocysteine levels (HPLC) after 11 days of oral dosing; details: oral once daily, relative value, pre-treatment average = 100, mean of 5 dogs
From the text: The required amount of the test substance calculated based on the body weight of the test animals was weighed and put in gelatin capsules (TORPAC Inc., ½ oz). After filling up, the capsules were placed in a box divided up for every animal and stored under freezing until use.
The capsules filled up with the test substance were orally administered to the test animals once daily via an oral gavage between 9:00-12:30. The test animals were fasted for 2-3 hrs prior to each administration. The administration period was 11 days.
Approximately 10 mL of blood was collected from the cephalic vein of each dog on -14 and -7 day (the 1st and the 2nd week prior to administration) as well as 4, 8, and 12 days after administration. The animals were fasted for approximately 18 hrs before collection of the blood.
Blood homocysteine levels were determined by HPLC method used conventionally in current clinical examination.
Relative values of blood homocysteine levels in animals treated with each dose of atorvastatin calcium or pyridoxine hydrochloride alone as well as the medicinal compositions of atorvastatin calcium plus pyridoxine hydrochloride were calculated against each converted average value calculated from that determined 2 weeks and 1 week before the treatment into 100.
The values indicate average results calculated from 5 dogs per a group.

[4] = 4 Days after treatment, Simvastatin 1 mg/Kg
[5] = 8 Days after treatment, Simvastatin 1 mg/Kg
[6] = 12 Days after treatment, Simvastatin 1 mg/Kg
[7] = 4 Days after treatment, Pravastatin sodium 2 mg/Kg
[8] = 8 Days after treatment, Pravastatin sodium 2 mg/Kg
[9] = 12 Days after treatment, Pravastatin sodium 2 mg/Kg
[10] = 4 Days after treatment, Atorvastatin calcium 2 mg/Kg
[11] = 8 Days after treatment, Atorvastatin calcium 2 mg/Kg
[12] = 12 Days after treatment, Atorvastatin calcium 2 mg/Kg
[13] = 4 Days after treatment, Atorvastatin calcium 2 mg/Kg and/or Pyridoxine hydrochloride 5 mg/Kg
[14] = 8 Days after treatment, Atorvastatin calcium 2 mg/Kg and/or Pyridoxine hydrochloride 5 mg/Kg
[15] = 12 Days after treatment, Atorvastatin calcium 2 mg/Kg and/or Pyridoxine hydrochloride 5 mg/Kg

Row | Structure (SMILES) | Percent changes of blood LDL levels (Male Beagle dogs [1]; [4]) | Percent changes of blood total cholesterol levels (Male Beagle dogs [1]; [4]) | Percent changes of blood triglyceride levels (Male Beagle dogs [1]; [4]) | Percent changes of blood LDL levels (Male Beagle dogs [1]; [5]) | Percent changes of blood total cholesterol levels (Male Beagle dogs [1]; [5]) | Percent changes of blood triglyceride levels (Male Beagle dogs [1]; [5]) | Percent changes of blood LDL levels (Male Beagle dogs [1]; [6]) | Percent changes of blood total cholesterol levels (Male Beagle dogs [1]; [6]) | Percent changes of blood triglyceride levels (Male Beagle dogs [1]; [6]) | blood homocysteine levels (in words) [2] | Percent changes of blood LDL levels (Male Beagle dogs [1]; [7]) | Percent changes of blood LDL levels (Male Beagle dogs [1]; [8]) | Percent changes of blood LDL levels (Male Beagle dogs [1]; [9]) | Percent changes of blood LDL levels (Male Beagle dogs [1]; [10]) | Percent changes of blood triglyceride levels (Male Beagle dogs [1]; [10]) | Percent changes of blood LDL levels (Male Beagle dogs [1]; [11]) | Percent changes of blood triglyceride levels (Male Beagle dogs [1]; [11]) | Percent changes of blood LDL levels (Male Beagle dogs [1]; [12]) | Percent changes of blood triglyceride levels (Male Beagle dogs [1]; [12]) | Percent changes of blood homocysteine levels (Male Beagle dogs [3]; [13]) | other results
1 | CC[C@H](C)C(=O)O[C@H]1C[C@@H](C)C=C2C=C[C@H](C)[C@H](CC[C@@H]3C[C@@H](O)CC(=O)O3)[C@H]21 [lovastatin, (+)-(1S,3R,7S,8S,8aR)-1,2,3,7,8,8a-hexahydro-3,7-dimethyl-8-[2-[(2R,4R)-tetrahydro-4-hydroxy-6-oxo-2H-pyran-2-yl]ethyl]-1-naphth yl(S)-2-methylbutyrate] | – | – | – | – | – | – | – | – | – | – | – | – | – | – | – | – | – | – | – | – | decrease of blood homocysteine levels on average (patients): 3.7%
2 | CCC(C)(C)C(=O)O[C@H]1C[C@@H](C)C=C2C=C[C@H](C)[C@H](CC[C@@H]3C[C@@H](O)CC(=O)O3)[C@H]21 [Simvastatin, (+)-(1S,3R,7S,8S,8aR)-1,2,3,7,8,8a-hexahydro-3,7-dimethyl-8-[2-[(2R,4R)-tetrahydro-4-hydroxy-6-oxo-2H-pyran-2-yl]ethyl]-1-naphthyl 2,2-dimethylbutyrate] | 83.9% | 94.8% | 66.4% | 90.4% | 94.1% | 85.3% | 81.3% | 92.4% | 82.0% | decreased | – | – | – | – | – | – | – | – | – | – | –
3 | CC[C@H](C)C(=O)O[C@H]1C[C@H](O)C=C2C=C[C@H](C)[C@H](CC[C@@H](O)C[C@@H](O)CC(=O)O)[C@H]21 [Pravastatin sodium, (+)-(3R,5R)-3,5-dihydroxy-7-[(1S,2S,6S,8S,8aR)-6-hydroxy-2-methyl-8-[(S)-2-methylbutyryloxy]-1,2,6,7,8,8a-hexahydro-1-naphtyl]heptanoic acid] | – | – | – | – | – | – | – | – | – | – | 92.6% | 91.6% | 90.4% | – | – | – | – | – | – | – | –
4 | CC(C)c1c(C(=O)Nc2ccccc2)c(-c2ccccc2)c(-c2ccc(F)cc2)n1CC[C@H](O)C[C@@H](O)CC(=O)O [atorvastatin, (3R,5S)-7-[2-(4-fluorophenyl)-5-(1-methylethyl)-3-phenyl-4-phenylaminocarbonyl-1H-pyrrol-1-yl]-3,5-dihydroxyheptanoic acid] | – | – | – | – | – | – | – | – | – | increased | – | – | – | – | – | – | – | – | – | – | –
5 | CC(C)c1c(C(=O)Nc2ccccc2)c(-c2ccccc2)c(-c2ccc(F)cc2)n1CC[C@H](O)C[C@@H](O)CC(=O)O [Atorvastatin calcium, (3R,5S)-7-[2-(4-fluorophenyl)-5-(1-methylethyl)-3-phenyl-4-phenylaminocarbonyl-1H-pyrrol-1-yl]-3,5-dihydroxyheptanoic acid] | – | – | – | – | – | – | – | – | – | – | – | – | – | 82.4% | 77.2% | 82.1% | 86.3% | 83.6% | 86.4% | 107.2% | Percent changes of blood homocysteine levels (Male Beagle dogs [3]; [14]): 106.3%; Percent changes of blood homocysteine levels (Male Beagle dogs [3]; [15]): 106.9%
6 | Cc1ncc(CO)c(CO)c1O.Cl [Pyridoxine hydrochloride] | 101.7% | 98.0% | 83.8% | 95.0% | 93.3% | 86.7% | 91.4% | 90.5% | 81.2% | – | 101.7% | 95.0% | 91.4% | 101.7% | 83.8% | 95.0% | 86.7% | 91.4% | 81.2% | 100.0% | Percent changes of blood homocysteine levels (Male Beagle dogs [3]; 4 Days after treatment, Pyridoxine hydrochloride 50 mg/Kg alone or with Atorvastatin calcium 2 mg/Kg): 101.4%; Percent changes of blood homocysteine levels (Male Beagle dogs [3]; [14]): 116.0%; Percent changes of blood homocysteine levels (Male Beagle dogs [3]; 8 Days after treatment, Pyridoxine hydrochloride 50 mg/Kg alone or with Atorvastatin calcium 2 mg/Kg): 111.5%; Percent changes of blood homocysteine levels (Male Beagle dogs [3]; [15]): 109.8%; Percent changes of blood homocysteine levels (Male Beagle dogs [3]; 12 Days after treatment, Pyridoxine hydrochloride 50 mg/Kg alone or with Atorvastatin calcium 2 mg/Kg): 103.0%
